In patent US20060246026A1, “Barrier formulation comprising a silicone based emulsion” (priority 2003, published 2006):

System: bacterial counts on the fingertips
Experiment: prEN 12791 in vivo anti-microbial activity on fingertips of volunteers
Set-up: species or system human
Settings: after 3 minutes (immediate); 20 volunteers; 60% propanol compared with the formulation (p<0.0001)
Protocol: The anti-microbial efficacy of the formulation of Example 5 was assessed in the clinical setting. The acceptability of the formulation of Example 5 by health care workers (HCW) was investigated. In vitro and in vivo assessment of the formulation was undertaken in accordance with European standards currently used for assessing hygienic and surgical rubs and washes (prEN 12054 and prEN 12791).
prEN 12054 and prEN 12791 (European Standards for Assessing Hygienic and Surgical Hand Rubs and Washes) • In vitro antibacterial efficacy of the formulation was assessed for anti-microbial activity against Staphylococcus aureus ATCC 6538, Enterococcus hirae ATCC 10541, Pseudomonas aeruginosa ATCC 15442 and Escherichia coli NCTC 10536 in accordance with prEN 12054. In vivo anti-microbial activity of the formulation was compared with 60% (v/v) […] (gold standard) in accordance with […]. Twenty laboratory volunteers participated in the assessment of the formulation in accordance to prEN 12791.

CCCO [60% propanol, propanol]
Mean reduction factor in the bacterial counts on the fingertips, immediate: significantly higher mean reduction factor
